Active and inactive are the calls of the source.
What was measured:
[1] = biological target: T1, G-protein coupled receptor 55 (Homo sapiens, UniProt Q9Y2T6); assay: SAR analysis of selective Agonists of GPR55 using an Image-Based Assay. [Related pubchem assays (depositor defined):AID1961, AID1965]; type: functional
[2] = biological target: Cannabinoid receptor 1 (Homo sapiens, UniProt P21554); assay: SAR analysis of antagonists of the Cannabinoid Receptor 1 using an Image-Based Assay. [Related pubchem assays (depositor defined):AID1961, AID1965]; type: functional
[3] = biological target: T2, Cannabinoid receptor 2 (Homo sapiens, UniProt P34972); assay: SAR analysis of agonists of the Cannabinoid Receptor 2 using an Image-Based Assay - Set 2. [Related pubchem assays (depositor defined):AID1961, AID1965]; type: functional
[4] = biological target: T2, Cannabinoid receptor 2; assay: SAR analysis of antagonists of the Cannabinoid Receptor 2 using an Image-Based Assay - Set 2. [Related pubchem assays (depositor defined):AID1961, AID1965]; type: functional
[5] = biological target: T3, Tyrosine-protein phosphatase non-receptor type 7 (Homo sapiens, UniProt P35236); assay: SAR analysis of chemical inhibitors of HePTP using a Fluorescent assay - Set 2. [Related pubchem assays (depositor defined):AID1059, AID1077, AID1661, AID2085, AID521]; type: functional
T3 sequence (P35236 whole entry): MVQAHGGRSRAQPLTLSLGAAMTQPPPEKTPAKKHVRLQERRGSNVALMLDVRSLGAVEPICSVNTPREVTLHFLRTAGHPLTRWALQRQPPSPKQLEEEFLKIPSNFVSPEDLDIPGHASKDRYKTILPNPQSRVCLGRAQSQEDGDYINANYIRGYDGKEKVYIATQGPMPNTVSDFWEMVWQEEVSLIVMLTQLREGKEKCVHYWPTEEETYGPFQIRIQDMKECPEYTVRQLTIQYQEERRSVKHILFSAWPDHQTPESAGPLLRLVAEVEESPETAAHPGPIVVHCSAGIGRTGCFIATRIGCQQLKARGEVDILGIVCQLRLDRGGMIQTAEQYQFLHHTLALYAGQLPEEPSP

[6] = biological target: T1, G-protein coupled receptor 55; assay: GPR55 agonists via beta-arrestin recruitment, primary screen, imaging, U2OS cells, beta-arrestin-GFP redistribution (AID 1961); type: functional
[7] = biological target: Dual specificity protein phosphatase 3 (Homo sapiens, UniProt P51452); assay: SAR VHR1 Fluorescent Assay for In Vitro dose response studies Set 2. [Related pubchem assays (depositor defined):AID1654, AID1661, AID1878]; type: functional
[8] = biological target: Sphingosine 1-phosphate receptor 1 (Homo sapiens, UniProt P21453); assay: Fluorescence-based counterscreen assay for S1P4 agonists: Cell-based dose response high throughput screening assay to identify agonists of the Sphingosine 1-Phosphate Receptor 1 (S1P1). [Related pubchem assays (depositor defined):AID1509, AID1523, AID1801, AID463107, AID463118, AID463119, AID463122, AID463123, AID463129, AID463225, AID504400, AID504460]; type: functional
[9] = cytotoxicity in HPDE-C7 cells, cell-based, fluorescence, HTS (AID 430); type: functional; conditions: Homo sapiens
[10] = biological target: T4, Short transient receptor potential channel 4 (Mus musculus, UniProt Q9QUQ5); assay: mouse TRPC4 channel activators, dose response, cell-based, HEK293 TRPC4/mu-opioid, Fluo-4 calcium (AID 434937); type: functional
T4 sequence (Q9QUQ5 whole entry): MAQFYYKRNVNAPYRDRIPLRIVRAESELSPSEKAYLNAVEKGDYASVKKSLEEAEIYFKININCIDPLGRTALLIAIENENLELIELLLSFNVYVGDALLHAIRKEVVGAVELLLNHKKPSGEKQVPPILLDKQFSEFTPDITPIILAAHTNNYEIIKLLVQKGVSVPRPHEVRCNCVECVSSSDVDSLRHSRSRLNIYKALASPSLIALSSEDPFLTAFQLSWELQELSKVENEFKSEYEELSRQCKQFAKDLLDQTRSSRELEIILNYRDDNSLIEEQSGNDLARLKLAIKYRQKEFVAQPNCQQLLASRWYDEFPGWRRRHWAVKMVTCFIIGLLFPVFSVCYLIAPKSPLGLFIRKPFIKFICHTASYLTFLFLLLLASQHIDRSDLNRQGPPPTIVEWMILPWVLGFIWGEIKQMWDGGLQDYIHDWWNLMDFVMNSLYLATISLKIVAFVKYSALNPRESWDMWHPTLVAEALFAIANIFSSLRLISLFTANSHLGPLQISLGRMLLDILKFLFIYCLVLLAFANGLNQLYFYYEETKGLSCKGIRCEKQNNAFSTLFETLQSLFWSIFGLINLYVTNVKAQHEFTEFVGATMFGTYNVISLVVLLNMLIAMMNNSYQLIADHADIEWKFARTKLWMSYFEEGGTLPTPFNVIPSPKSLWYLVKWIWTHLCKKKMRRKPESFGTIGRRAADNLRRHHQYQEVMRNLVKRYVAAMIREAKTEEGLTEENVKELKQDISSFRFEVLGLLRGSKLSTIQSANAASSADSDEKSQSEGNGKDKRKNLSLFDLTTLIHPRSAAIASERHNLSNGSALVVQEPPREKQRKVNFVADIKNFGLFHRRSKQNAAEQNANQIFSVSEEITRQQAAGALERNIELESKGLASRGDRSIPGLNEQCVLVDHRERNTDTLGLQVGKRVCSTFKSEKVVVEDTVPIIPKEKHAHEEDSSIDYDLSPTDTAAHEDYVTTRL

[11] = biological target: Sphingosine 1-phosphate receptor 4 (Homo sapiens, UniProt O95977); assay: Fluorescence dose response cell-based high throughput screening assay for agonists of the Sphingosine 1-Phosphate Receptor 4 (S1P4). [Related pubchem assays: 1509 (Primary screen.), 1523 (Confirmation screen in triplicates.)]; type: functional
[12] = cytotoxicity in KRAS-transformed pancreatic duct cells, primary screen, cell-based, fluorescence, HTS (AID 431); type: functional; conditions: Homo sapiens;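 note: cell line used: HPDE-C7K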
[13] = biological target: Sphingosine 1-phosphate receptor 2 (Homo sapiens, UniProt O95136); assay: Dose Response Cell Based Assay for Agonists of the S1P2 Receptor. [Related pubchem assays: 729, 736, 843 ]; type: functional
[14] = biological target: Lysine-specific demethylase 4A (Homo sapiens, UniProt O75164); assay: JMJD2A histone demethylase inhibitors, dose response, selectivity assay for GASC-1 inhibitor project, biochemical, DELFIA europium, cherry-picked samples (AID 488840)
[15] = biological target: T5, Kappa-type opioid receptor (Homo sapiens, UniProt P41145); assay: SAR analysis of small molecule agonists of the kappa opioid receptor via a luminescent beta-arrestin assay - Set 3. [Related pubchem assays (depositor defined):AID1777, AID1785, AID1786, AID1966, AID2133, AID2136, AID2284, AID2500]; type: functional
[16] = biological target: Delta-type opioid receptor (Homo sapiens, UniProt P41143); assay: SAR Analysis of Agonists of the DOR Receptor using an Image-Based Assay - Set 3. [Related pubchem assays (depositor defined):AID1777, AID1786]; type: functional
[17] = biological target: T5, Kappa-type opioid receptor; assay: KOR agonist analogs, arrestin-GFP redistribution, SAR follow-up, imaging, image-based, set 3 (AID 488833); type: functional
[18] = biological target: Mu-type opioid receptor (Homo sapiens, UniProt P35372); assay: SAR Analysis of Agonists of the MOR Receptor using an Image-Based Assay - Set 3. [Related pubchem assays (depositor defined):AID1777, AID1785, AID1786, AID1966, AID2133, AID2136, AID2284, AID2285, AID2352]; type: functional
[19] = biological target: T6, Hexokinase HKDC1 (Homo sapiens, UniProt Q2TB90); assay: HKDC1 hexokinase inhibitors, dose response, biochemical, W721R variant (AID 504729); type: functional
T6 sequence (Q2TB90 whole entry): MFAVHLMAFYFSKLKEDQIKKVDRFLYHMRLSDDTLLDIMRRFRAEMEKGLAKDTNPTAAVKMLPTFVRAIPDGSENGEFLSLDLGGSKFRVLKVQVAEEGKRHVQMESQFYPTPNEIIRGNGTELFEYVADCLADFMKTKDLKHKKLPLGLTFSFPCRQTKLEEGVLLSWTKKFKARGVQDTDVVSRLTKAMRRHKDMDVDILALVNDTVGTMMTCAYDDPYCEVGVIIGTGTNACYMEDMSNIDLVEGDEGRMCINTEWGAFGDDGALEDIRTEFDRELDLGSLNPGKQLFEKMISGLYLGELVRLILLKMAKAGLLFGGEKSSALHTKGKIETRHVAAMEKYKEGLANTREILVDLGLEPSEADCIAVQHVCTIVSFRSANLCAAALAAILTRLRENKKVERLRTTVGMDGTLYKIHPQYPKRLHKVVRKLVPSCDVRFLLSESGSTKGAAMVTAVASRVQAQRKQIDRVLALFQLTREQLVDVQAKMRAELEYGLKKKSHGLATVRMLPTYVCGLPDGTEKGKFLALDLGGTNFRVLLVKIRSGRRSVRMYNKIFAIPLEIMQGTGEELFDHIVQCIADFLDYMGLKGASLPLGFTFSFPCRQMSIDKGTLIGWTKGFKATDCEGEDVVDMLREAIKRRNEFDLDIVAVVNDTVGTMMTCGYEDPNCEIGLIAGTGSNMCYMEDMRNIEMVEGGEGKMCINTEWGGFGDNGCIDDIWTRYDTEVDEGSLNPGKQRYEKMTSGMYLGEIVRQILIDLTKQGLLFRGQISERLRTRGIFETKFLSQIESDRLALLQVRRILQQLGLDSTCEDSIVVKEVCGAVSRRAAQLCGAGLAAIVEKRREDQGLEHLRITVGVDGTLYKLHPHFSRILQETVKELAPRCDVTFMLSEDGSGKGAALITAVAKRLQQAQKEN

[20] = biological target: Intestinal-type alkaline phosphatase (Homo sapiens, UniProt P09923); assay: inhibition of human intestinal alkaline phosphatase – biochemical, dose response (AID 488876); type: functional
[21] = biological target: T7, Alkaline phosphatase, tissue-nonspecific isozyme (Homo sapiens, UniProt P05186); assay: TNAP enzyme inhibition by screening hits, dose response, selectivity assay for mouse IAP inhibitor project, biochemical, human TNAP, uHTS hits (AID 488906); type: functional
T7 sequence (P05186 whole entry): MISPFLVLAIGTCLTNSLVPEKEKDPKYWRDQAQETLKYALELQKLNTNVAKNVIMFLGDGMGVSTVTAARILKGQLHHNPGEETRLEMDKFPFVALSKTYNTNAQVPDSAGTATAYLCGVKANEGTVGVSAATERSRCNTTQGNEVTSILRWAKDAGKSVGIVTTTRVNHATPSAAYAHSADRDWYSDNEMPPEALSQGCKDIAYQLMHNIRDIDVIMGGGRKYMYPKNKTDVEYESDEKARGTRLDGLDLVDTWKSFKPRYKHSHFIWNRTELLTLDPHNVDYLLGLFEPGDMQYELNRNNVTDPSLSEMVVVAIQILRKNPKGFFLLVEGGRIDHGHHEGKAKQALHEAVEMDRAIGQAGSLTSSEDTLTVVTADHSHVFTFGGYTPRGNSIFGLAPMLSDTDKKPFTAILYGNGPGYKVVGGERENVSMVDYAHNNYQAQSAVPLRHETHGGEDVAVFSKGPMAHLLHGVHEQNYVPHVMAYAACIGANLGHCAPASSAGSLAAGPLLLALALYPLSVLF

[22] = biological target: Intestinal-type alkaline phosphatase (Mus musculus, UniProt P24822); assay: PubChem AID 488785; type: functional
Chain of Intestinal-type alkaline phosphatase (Mus musculus, UniProt P24822) (P24822 whole entry): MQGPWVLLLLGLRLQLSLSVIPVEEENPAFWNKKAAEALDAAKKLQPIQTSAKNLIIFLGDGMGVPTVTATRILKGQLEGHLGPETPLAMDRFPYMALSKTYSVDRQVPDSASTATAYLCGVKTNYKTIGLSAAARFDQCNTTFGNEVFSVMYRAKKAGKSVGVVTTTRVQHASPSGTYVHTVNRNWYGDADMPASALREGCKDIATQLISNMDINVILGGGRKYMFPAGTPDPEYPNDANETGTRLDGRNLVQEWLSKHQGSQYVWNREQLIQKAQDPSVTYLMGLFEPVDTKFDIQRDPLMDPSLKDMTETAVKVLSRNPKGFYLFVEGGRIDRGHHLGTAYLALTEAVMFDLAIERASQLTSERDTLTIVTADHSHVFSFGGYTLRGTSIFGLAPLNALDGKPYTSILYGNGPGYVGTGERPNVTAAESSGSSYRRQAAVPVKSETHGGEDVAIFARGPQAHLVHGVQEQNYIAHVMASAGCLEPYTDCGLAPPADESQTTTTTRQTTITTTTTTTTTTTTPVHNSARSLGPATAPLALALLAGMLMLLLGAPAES

T5 sequence (P41145 whole entry): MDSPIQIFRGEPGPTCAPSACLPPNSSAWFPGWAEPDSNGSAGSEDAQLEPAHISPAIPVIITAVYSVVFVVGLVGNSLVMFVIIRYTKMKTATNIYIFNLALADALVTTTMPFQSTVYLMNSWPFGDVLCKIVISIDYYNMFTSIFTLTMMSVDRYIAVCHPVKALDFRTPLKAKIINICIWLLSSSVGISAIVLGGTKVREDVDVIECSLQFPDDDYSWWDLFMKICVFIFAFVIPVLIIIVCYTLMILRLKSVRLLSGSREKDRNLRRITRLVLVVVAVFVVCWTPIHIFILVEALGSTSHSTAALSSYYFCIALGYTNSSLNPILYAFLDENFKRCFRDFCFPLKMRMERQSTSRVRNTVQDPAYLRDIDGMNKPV
T1 sequence (Q9Y2T6 whole entry): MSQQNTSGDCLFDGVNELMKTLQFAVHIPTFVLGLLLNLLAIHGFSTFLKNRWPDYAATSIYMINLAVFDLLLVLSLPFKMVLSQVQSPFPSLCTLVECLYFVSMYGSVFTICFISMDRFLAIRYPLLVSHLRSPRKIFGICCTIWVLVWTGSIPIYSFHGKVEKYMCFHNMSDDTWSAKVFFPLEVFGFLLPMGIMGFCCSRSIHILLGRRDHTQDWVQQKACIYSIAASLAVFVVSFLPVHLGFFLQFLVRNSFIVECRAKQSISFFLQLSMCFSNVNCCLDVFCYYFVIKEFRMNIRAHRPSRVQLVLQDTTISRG
T2 sequence (P34972 whole entry): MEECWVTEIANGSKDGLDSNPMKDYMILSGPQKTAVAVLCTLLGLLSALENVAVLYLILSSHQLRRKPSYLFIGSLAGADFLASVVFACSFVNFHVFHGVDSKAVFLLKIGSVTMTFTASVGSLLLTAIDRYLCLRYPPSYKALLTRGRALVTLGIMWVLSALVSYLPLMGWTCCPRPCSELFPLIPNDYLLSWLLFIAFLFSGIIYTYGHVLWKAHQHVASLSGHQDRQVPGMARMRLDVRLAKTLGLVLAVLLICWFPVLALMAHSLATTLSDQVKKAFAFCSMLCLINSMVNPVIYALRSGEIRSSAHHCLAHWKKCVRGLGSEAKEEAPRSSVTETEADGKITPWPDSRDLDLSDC
Chain of Sphingosine 1-phosphate receptor 1 (P21453 whole entry): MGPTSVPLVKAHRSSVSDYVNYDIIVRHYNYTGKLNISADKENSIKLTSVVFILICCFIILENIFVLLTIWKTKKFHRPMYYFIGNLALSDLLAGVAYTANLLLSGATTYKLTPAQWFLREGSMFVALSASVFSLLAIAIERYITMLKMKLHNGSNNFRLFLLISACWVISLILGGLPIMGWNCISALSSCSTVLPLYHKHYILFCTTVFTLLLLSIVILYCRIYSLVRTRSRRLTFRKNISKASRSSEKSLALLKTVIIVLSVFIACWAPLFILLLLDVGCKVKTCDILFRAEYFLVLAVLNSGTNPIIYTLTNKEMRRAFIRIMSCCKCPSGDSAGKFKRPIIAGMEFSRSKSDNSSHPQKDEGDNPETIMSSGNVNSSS
Chain of Mu-type opioid receptor (P35372 whole entry): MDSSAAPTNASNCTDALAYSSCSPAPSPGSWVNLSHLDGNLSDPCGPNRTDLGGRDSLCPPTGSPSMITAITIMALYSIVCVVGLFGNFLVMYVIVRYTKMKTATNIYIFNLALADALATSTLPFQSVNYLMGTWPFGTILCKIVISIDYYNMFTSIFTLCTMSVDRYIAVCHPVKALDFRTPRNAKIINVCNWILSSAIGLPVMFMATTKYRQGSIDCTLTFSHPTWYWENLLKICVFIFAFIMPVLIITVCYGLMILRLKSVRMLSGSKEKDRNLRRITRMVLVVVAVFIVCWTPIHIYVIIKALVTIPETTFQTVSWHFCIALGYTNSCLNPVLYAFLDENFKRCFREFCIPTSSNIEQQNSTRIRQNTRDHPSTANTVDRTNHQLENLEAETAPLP
Chain of Dual specificity protein phosphatase 3 (P51452 whole entry): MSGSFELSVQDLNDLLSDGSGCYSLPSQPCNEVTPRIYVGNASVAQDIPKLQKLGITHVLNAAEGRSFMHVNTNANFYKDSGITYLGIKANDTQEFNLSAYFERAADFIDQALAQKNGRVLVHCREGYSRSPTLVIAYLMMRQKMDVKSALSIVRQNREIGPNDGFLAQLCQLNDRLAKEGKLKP
Chain of Sphingosine 1-phosphate receptor 2 (O95136 whole entry): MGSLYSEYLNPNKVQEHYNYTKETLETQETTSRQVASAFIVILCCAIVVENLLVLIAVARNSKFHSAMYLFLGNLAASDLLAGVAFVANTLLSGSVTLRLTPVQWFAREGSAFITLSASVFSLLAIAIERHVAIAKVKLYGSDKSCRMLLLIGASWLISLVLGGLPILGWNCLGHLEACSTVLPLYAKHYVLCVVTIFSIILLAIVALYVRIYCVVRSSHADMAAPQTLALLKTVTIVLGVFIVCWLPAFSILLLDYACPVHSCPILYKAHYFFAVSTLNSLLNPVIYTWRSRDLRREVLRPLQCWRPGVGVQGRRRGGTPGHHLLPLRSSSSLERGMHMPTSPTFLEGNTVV
Chain of Cannabinoid receptor 1 (P21554 whole entry): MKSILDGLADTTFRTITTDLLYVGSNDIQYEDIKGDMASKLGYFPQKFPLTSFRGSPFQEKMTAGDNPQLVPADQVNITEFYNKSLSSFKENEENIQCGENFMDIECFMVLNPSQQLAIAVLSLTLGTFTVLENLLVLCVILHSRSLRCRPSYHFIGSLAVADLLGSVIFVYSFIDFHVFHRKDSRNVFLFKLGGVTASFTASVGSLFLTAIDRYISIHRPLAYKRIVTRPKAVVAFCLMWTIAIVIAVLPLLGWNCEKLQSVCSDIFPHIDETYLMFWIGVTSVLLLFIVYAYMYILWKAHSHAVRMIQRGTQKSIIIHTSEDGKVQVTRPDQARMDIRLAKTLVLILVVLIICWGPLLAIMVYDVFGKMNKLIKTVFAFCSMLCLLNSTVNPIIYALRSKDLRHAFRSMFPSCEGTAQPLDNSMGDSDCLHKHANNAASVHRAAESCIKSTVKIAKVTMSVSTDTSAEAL
Chain of Delta-type opioid receptor (P41143 whole entry): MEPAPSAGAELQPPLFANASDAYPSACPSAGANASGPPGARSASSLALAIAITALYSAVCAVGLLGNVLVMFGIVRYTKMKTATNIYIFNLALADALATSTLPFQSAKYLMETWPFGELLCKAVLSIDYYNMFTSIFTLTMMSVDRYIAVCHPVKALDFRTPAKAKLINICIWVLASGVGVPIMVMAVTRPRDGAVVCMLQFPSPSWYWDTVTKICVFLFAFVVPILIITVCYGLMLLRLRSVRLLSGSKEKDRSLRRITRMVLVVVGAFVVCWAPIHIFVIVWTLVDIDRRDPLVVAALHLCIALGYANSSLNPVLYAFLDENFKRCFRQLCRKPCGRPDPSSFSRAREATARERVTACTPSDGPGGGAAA
Chain of Intestinal-type alkaline phosphatase (Homo sapiens, UniProt P09923) (P09923 whole entry): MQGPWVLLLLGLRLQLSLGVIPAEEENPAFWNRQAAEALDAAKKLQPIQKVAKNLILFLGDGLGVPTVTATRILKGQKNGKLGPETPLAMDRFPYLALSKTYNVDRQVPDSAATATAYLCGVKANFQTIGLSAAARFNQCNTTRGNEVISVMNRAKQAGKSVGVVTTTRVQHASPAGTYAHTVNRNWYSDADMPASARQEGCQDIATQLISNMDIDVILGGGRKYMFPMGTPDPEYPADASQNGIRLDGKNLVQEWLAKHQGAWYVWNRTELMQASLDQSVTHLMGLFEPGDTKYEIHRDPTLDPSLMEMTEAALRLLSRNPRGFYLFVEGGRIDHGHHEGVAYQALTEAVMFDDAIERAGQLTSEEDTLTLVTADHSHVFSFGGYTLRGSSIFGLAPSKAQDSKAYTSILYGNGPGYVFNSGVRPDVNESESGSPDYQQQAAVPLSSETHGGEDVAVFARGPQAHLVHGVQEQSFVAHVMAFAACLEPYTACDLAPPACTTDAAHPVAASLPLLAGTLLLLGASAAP
Chain of Sphingosine 1-phosphate receptor 4 (O95977 whole entry): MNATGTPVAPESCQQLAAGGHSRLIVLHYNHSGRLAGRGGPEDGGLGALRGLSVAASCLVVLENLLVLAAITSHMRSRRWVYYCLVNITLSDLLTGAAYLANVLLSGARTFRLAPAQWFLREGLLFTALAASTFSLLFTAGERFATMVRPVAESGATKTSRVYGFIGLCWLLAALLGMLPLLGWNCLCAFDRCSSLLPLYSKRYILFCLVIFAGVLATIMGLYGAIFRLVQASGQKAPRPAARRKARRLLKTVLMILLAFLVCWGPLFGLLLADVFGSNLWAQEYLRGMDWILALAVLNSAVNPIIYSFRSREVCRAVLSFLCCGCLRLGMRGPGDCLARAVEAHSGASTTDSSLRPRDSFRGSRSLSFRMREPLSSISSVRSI

## C=CCN(CC=C)S(=O)(=O)c1ccc(NC(=S)NC(=O)c2ccc(-c3ccccc3)cc2)cc1
[1]
  EC50: 0.2 µM (active)
[2]
  IC50: > 32 µM (inactive)
[3]
  EC50: > 32 µM (inactive)
[4]
  IC50: > 32 µM (inactive)
[5]
  IC50: > 100 µM (inactive)
[6]
  EC50: < 0.5 µM (active)
[7]
  IC50: > 100 µM (inactive)

## Clc1ccc2nc(N3CCNCC3)nc(-c3ccccc3)c2c1
[8]
  EC50: > 49.8 µM (inactive)
[9]
  EC50: 8.03 µM (active)
[10]
  EC50: 5.96 µM (active)
[11]
  EC50: > 49.8 µM (not active)
[12]
  EC50: 4.64 µM (active)
[13]
  EC50: 1.34 µM (active)

## CCC(C(=O)NCCCc1ccccc1)c1ccccc1 (configuration not stated)
[14]
  AC50: 3.73 µM (active)

## N#Cc1ccc(CSc2nnc(-c3ccccn3)n2Cc2cccs2)cc1
[15]
  EC50: 4.64 µM (active)
[16]
  EC50: > 64 µM (inactive)
[17]
  EC50: 3.52 µM (active)
[18]
  EC50: > 32 µM (inactive)

## NS(=O)(=O)c1ccc(N/N=C2\C(=O)Nn3c2nc2c(c3=O)CCCC2)cc1
[19]
  IC50: 13.2 µM (active)
[20]
  IC50: 23.6 µM (active)
[21]
  IC50: 21.2 µM (active)
[22]
  IC50: 9.28 µM (active)

Reference: ChEMBL document CHEMBL1201862, “PubChem BioAssay data set” (2004)
